Entries after “also recorded” stand apart in the source; their conditions may differ.
Test system: fibroblasts
Test: Wrinkling of PDMS silicone elastomer film by contractile fibroblasts (live videomicroscopy, kymograph analysis)
Assay type: cell-based, rat
Settings: 1:100 PDMS film, plasma + APTES + paraformaldehyde + collagen; LPA 10 μM, cytochalasin D 1-10 μM, Y27632 10 μM
Description: Primary rat lung myofibroblasts and subcutaneous fibroblasts (SCF) were derived from explants and cultured from passage 2-7. All cells, including lineage aortic smooth muscle cells (A7r5) and rat embryonic fibroblasts (REF-52) were cultured in DMEM (Gibco-BRL, Basel, CH), containing 10% FCS and antibiotics. Cytochalasin D (Sigma) was used at 1-10 μM, blebbistatin (Calbiochem, Darmstadt, Germany) at 10 μM, Y27632 (Calbiochem) at 10 μM and lysophosphatic acid (LPA) (Sigma) at 10 μM. For FA maturation analysis, REF-52 were stably transfected with β3 integrin-GFP (16), full-length GFP-paxillin (Zamir et al, 2000), and α-SMA-GFP (Clement et al., 2005), using Fugene 6 (Roche, Reinach, CH).
To reduce pipetting errors and to ameliorate the mixing process, curing agent can be pre-diluted in toluene without changing the elastic properties of the polymerized material. PDMS films of 200 μm thickness were produced by distributing the respective volume with a pipette tip onto glass coverslips (#0, Karl Hecht KG, Sondheim, Germany) at the bottom of homemade observation chambers or on standard culture dishes. Substrates were degassed in a desiccator and polymerized for minimum 3 d at RT. Polymerized films were kept at RT for up to two months without changing compliance. Alternative polymerization protocols using higher curing temperatures are possible but will have an influence on the elastic modulus of the film (Lee et al., 2004). […]
Confocal images of fixed specimen were acquired using a 40× oil immersion objective (HC PL APO, NA 1.25-0.75, Leica, Glattbrugg, CH), mounted on an inverted confocal microscope (DM IRE2 with a laser scanning confocal head TCS SP2 AOBS, Leica). […] Phase contrast sequences were taken at a rate of 1 frame/min and live fluorescence images every 30 min using 20× (Plan-Apochromat, Ph2, NA 0.5) and 40× (Plan-Neofluar, Ph3, NA 1.3 oil immersion, Zeiss) objectives. […]

| Compound | cell contraction (number and extension of wrinkles) |
| --- | --- |
| lysophosphatic acid [LPA] | increased cell contraction |
| C[C@@H](N)[C@H]1CC[C@H](C(=O)Nc2ccncc2)CC1 [Y27632] | completely abolished |
| C=C1[C@@H](C)[C@H]2[C@H](Cc3ccccc3)NC(=O)[C@]23[C@H](OC(C)=O)/C=C/[C@@](C)(O)C(=O)[C@@H](C)C/C=C/[C@H]3[C@@H]1O [cytochalasin D, Cytochalasin D] | completely abolished; also recorded: loss of cell contraction |

Test system: hES2-derived cardiomyocytes
Test: Wrinkling-based contraction analysis of periodically contracting cardiomyocyte colonies on silicone elastomer film
Assay type: cell-based, human
Settings: live treatment in three concentrations (high, medium, low): ouabain and nifidepine 0.3, 3, 30 μM; isoproterenol and blebbistatin 0.1, 1, 10 μM
Description: To meet standard requirements on product shelf life and ease-of-shipping, the surface treatment method was refined to provide the film surface with a dry layer of adhesive protein. The improved treatment process (“APTES/EDAC”) comprises sequential oxidation with plasma oxygen, 1% APTES for 90 min, 100 μg/ml 1-Ethyl-3-(3-dimethylaminopropyl) carbodiimide (EDAC) for 10 min (to replace the previous paraformaldehyde step), protein wet coating, and air drying. Fibronectin and gelatin were used as most widely applied proteins to promote cardiomyocyte adhesion.
The number of beating colonies was at least 20-30/well across all protein coatings following APTES/EDAC treatment but <10 beating colonies/well without APTES/EDAC functionalization (FIG. 17C). APTES/EDAC functionalization obtained wrinkles which were visible in ˜50% of all beating colonies (FIG. 17D). APTES/EDAC treated surfaces with fibronectin (2 μg/ml) and gelatin (2 and 20 μg/ml) coating were selected to optimize cell densities for contraction analysis. Cardiomyocyte seeding densities were reduced from 50,000 to 25,000, 10,000 and 5,000 cells/cm^2 and wrinkling percentages were quantified. With cell density adaptation, the percentage of wrinkling among beating colonies reached 80-90% across all protein coatings with 10,000-25,000 cells/cm^2. […] Too low density reduced the number of beating colonies and percentage of wrinkling cells (FIG. 17E). For all further experiments, the plasma oxidized and APTES/EDAC-treated biocompatible silicone elastomers of 96-wells were coated with gelatin at a concentration of 2 μg/ml and provided with 10,000 cells/cm^2 before wrinkling was assessed after 2 days.
Cardiomyocyte contraction was assessed by recording image sequences over at least 15 s with an image acquisition rate of 10 frames/s. Acquisition was performed well-by-well on four image fields per well using the 10× objective of an inverted microscope with motorized stage and fully automated stage/acquisition control. The setup was chosen to provide conditions equivalent to commercially available HTS imaging stations. […] When comparing the signals generated by contracting cardiomyocytes on films with the competitive method of shape analysis on stiff culture substrates, wrinkling analysis delivered a 10-20-fold higher signal (FIG. 18).
Referring to FIG. 28, periodically contracting cardiomyocyte colonies were recorded and live treated with cardiomyocyte affecting drugs in three concentrations (high, medium, low). Ouabain (0.3, 3, 30 μM) increased contraction amplitude at unchanged frequency, nifidepine (0.3, 3, 30 μM) decreased contraction amplitude and increased frequency, isoproterenol (0.1, 1, 10 μM) increased contraction frequency and amplitude, and blebbistatin (0.1, 1, 10 μM) decreased contraction amplitude and frequency.

| Compound | contraction (beating) amplitude | contraction (beating) frequency |
| --- | --- | --- |
| CC(C)NCC(O)c1ccc(O)c(O)c1 (stereo not drawn) [isoproterenol] | increased | increased |
| COC(=O)C1=C(C)NC(C)=C(C(=O)OC)C1c1ccccc1[N+](=O)[O-] [nifidepine] | decreased | increased |
| Cc1ccc2c(c1)C(=O)C1(O)CCN(c3ccccc3)C1=N2 (stereo not drawn) [blebbistatin] | decreased | decreased |
| C[C@@H]1O[C@@H](O[C@H]2C[C@@H](O)[C@]3(CO)[C@H]4[C@H](O)C[C@]5(C)[C@@H](C6=CC(=O)OC6)CC[C@]5(O)[C@@H]4CC[C@]3(O)C2)[C@H](O)[C@H](O)[C@H]1O [Ouabain] | increased | unchanged |

Test system: cardiomyocytes
Test: not given
Settings: benchmark drugs, Yokoo et al. 2009 / Gai et al. 2009; cited from earlier work

| Compound | frequency of beating |
| --- | --- |
| CC(C)NCC(O)c1ccc(O)c(O)c1 (stereo not drawn) [isoproterenol] | increase |
| COc1ccc(CCN(C)CCCC(C#N)(c2ccc(OC)c(OC)c2)C(C)C)cc1OC (stereo not drawn) [verapamil] | decrease |
| CNC[C@H](O)c1cccc(O)c1 [phenylephrine] | increase |
| CCN(CC)CCNC(=O)c1ccc(N)cc1 [procainamide] | decrease |
| CNCC(O)c1ccc(O)c(O)c1 (stereo not drawn) [adrenaline] | increase |
| COc1ccc([C@@H]2Sc3ccccc3N(CCN(C)C)C(=O)[C@@H]2OC(C)=O)cc1 [diltiazem] | decrease |
| O=C(NCC1CCCCN1)c1cc(OCC(F)(F)F)ccc1OCC(F)(F)F (stereo not drawn) [felcainide] | decrease |

From patent US20170199175A1, “DEVICE AND METHOD FOR ASSESSING CELL CONTRACTION” (The Governing Council of the University of Toronto, priority 2014, published 2017)
